In patent US9422240B2, “Partially saturated nitrogen-containing heterocyclic compound” (TAISHO PHARMACEUTICAL CO., LTD, priority 2012, dated 2016):
Structures can show the parent of a compound that is named as a salt.

Molecular target: human PHD2 (Homo sapiens (Human), UniProt Q9GZT9)
Assay: Test 2: human PHD2 inhibitory activity, fluorescence polarization assay of HIF-1α peptide proline hydroxylation
Format: biochemical
Conditions: human PHD2, fluorescence polarization assay, 20-min incubation at 30° C.
Procedure: (1) Expression and Preparation of Human PHD2
A registered sequence of human PHD2 (NM_022051) was introduced into pcDNA3.1/Hygro(+) vector (Invitrogen), and the sequence was verified. […] The suspension of disrupted cells was centrifuged at 4° C. and 100,000×g for 30 minutes and the supernatant was recovered as a cell lysate.
(2) Measurement of Human PHD2 Inhibitory Activity
The activity of human PHD2 enzyme was measured with a substrate which is a 19-residue partial peptide based on the sequence of HIF-1α; specifically, the hydroxylation of a proline residue in the peptide was measured by FP (Fluorescence Polarization).
A test compound and the substrate solution were preliminarily added onto 384-well plates and reaction was initiated by adding a human PHD2 enzyme solution (40 ng/well). After 20-min incubation at 30° C., an EDTA-containing quench solution was added and the amount of the proline residues hydroxylated via binding to an added HIF—OH antibody solution was quantified by fluorescence polarization.
The fluorescence polarization of each well was measured and the human PHD2 inhibitory activity of each test compound was calculated on the basis of the values for the test compound-free group.

human PHD2, sequence (Q9GZT9 whole entry): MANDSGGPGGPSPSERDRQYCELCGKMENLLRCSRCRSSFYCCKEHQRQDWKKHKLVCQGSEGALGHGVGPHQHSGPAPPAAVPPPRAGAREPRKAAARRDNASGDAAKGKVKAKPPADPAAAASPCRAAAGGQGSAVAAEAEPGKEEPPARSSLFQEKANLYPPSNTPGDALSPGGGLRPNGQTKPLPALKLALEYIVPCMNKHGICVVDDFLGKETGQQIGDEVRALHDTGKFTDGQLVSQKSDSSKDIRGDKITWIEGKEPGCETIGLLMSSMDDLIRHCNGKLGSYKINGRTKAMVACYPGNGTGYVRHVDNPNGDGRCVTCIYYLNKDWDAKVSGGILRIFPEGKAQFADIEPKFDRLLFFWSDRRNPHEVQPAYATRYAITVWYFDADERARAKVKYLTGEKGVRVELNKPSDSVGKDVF

Structure (SMILES)	IC50 [nM]
O=C(O)CNC(=O)C1=C(O)CCN(Cc2ccc(Oc3ncccn3)cc2)C1=O [Ex. 1-226]	409
Cc1ccc(Oc2ncc(CN3CCC(O)=C(C(=O)NCC(=O)O)C3=O)cn2)cc1 [Ex. 1-408]	72
O=C(O)CNC(=O)C1=C(O)CCN(Cc2cnc(Oc3ccc(Cl)cc3)cn2)C1=O [Ex. 1-440]	39

Same assay, conditions: read-out: Percent inhibition (% at 1 μM)

Structure (SMILES)	inhibition at 1 µM [%]
Cc1cc(CN2CCC(O)=C(C(=O)NCC(=O)O)C2=O)ccc1OCC1CC1 [Ex. 1-468, N-({1-[4-(Cyclopropylmethoxy)-3-methylbenzyl]-4-hydroxy-2-oxo-1,2,5,6-tetrahydro-3-pyridinyl}carbonyl)glycine sodium salt]	85
C[C@H]1CC(O)=C(C(=O)NCC(=O)O)C(=O)N1Cc1ccc(OCC2CC2)cc1 [Ex. 6-2, N-({(6S)-1-[4-(Cyclopropylmethoxy)benzyl]-4-hydroxy-6-methyl-2-oxo-1,2,5,6-tetrahydro-3-pyridinyl}carbonyl)glycine sodium salt]	77

Same assay, conditions: test compound's concentration 1 μM; Test 2, fluorescence polarization assay; read-out: Percent inhibition (% at 1 μM)

Structure (SMILES)	inhibition at 1 µM [%]
O=C(O)CNC(=O)C1=C(O)CCN(C[C@H]2C[C@H](Oc3ccc(Cl)cc3)C2)C1=O [Ex. 1-454]	95
O=C(O)CNC(=O)C1=C(O)CCN(Cc2ccc(-c3ccc(OC(F)(F)F)cc3)cn2)C1=O [Ex. 2-39]	93
CC1(C)CN(Cc2ccc(OC3CC3)cc2)C(=O)C(C(=O)NCC(=O)O)=C1O [Ex. 1-359]	69
Cc1cc(CN2CCC(O)=C(C(=O)NCC(=O)O)C2=O)ccc1OCc1ccc(F)cc1 [Ex. 1-388]	92
O=C(O)CNC(=O)C1=C(O)CCN(C[C@H]2CC[C@H](Oc3ccc(C(F)(F)F)cn3)CC2)C1=O [Ex. 1-437]	92
CN1CCN(c2ccc(CN3CCC(O)=C(C(=O)NCC(=O)O)C3=O)cc2)CC1 [Ex. 1-342]	57
CC1(C)CC(O)=C(C(=O)NCC(=O)O)C(=O)N1Cc1ccc(OCC2CC2)nc1 [Ex. 6-29]	69
O=C(O)CNC(=O)C1=C(O)CCN(Cc2ccc(OCc3ccc(OC(F)(F)F)cc3)cc2)C1=O [Ex. 1-375]	85
O=C(O)CNC(=O)C1=C(O)CCN(Cc2ccc(Oc3ncccn3)cc2)C1=O [Ex. 1-226]	84
CS(=O)(=O)c1ccc(-c2ccc(CN3CCC(O)=C(C(=O)NCC(=O)O)C3=O)cc2)cn1 [Ex. 2-56]	92
O=C(O)CNC(=O)C1=C(O)CCN(C[C@H]2CC[C@H](OC3CCC3)CC2)C1=O [Ex. 1-451]	82
CC1(C)CC(O)=C(C(=O)NCC(=O)O)C(=O)N1CC1CCN(c2ncccn2)CC1 [Ex. 6-17]	32
O=C(O)CNC(=O)C1=C(O)CCN(Cc2cnc(N3CCOCC3)s2)C1=O [Ex. 1-340]	69
O=C(O)CNC(=O)C1=C(O)CCN(Cc2cnc(OCCC3CC3)c(Cl)c2)C1=O [Ex. 1-420]	92
CC1(C)C(O)=C(C(=O)NCC(=O)O)C(=O)N1Cc1ccc(-c2ccccc2)cc1 [Ex. 1-324]	91
Cc1ccc(OCc2ccc(CN3CCC(O)=C(C(=O)NCC(=O)O)C3=O)cc2)cc1 [Ex. 1-417]	99
Cc1cccc(COc2ccc(CN3CCC(O)=C(C(=O)NCC(=O)O)C3=O)cc2)c1 [Ex. 1-364]	97
COc1ccc(CN2CCC(O)=C(C(=O)NCCC(=O)O)C2=O)cc1 [Ex. 9-1, N-{[4-Hydroxy-1-(4-methoxybenzyl)-2-oxo-1,2,5,6-tetrahydro-3-pyridinyl]carbonyl}-β-alanine]	29
O=C(O)CNC(=O)C1=C(O)CCN(Cc2cnc(C(F)(F)F)nc2)C1=O [Ex. 1-338]	71
O=C(O)CNC(=O)C1=C(O)CCN(C(CO)c2ccc(-c3ccc(F)cc3)cc2)C1=O (centres unmarked) [Ex. 11-1, N-({1-[1-(4′-Fuoro-4-biphenylyl)-2-hydroxyethyl]-4-hydroxy-2-oxo-1,2,5,6-tetrahydro-3-pyridinyl}carbonyl)glycine]	96
O=C(O)CNC(=O)C1=C(O)CCN(Cc2ccc(-c3ccc(O)nc3)cc2)C1=O [Ex. 2-60]	96
COc1ccc(CN2CCC(O)=C(C(=O)NCCCC(=O)O)C2=O)cc1 [Ex. 9-2]	23
O=C(O)CNC(=O)C1=C(O)CCNC1=O [Ex. 1-308]	41
O=C(O)CNC(=O)C1=C(O)CCN(C[C@H]2CC[C@H](Oc3ccc(Cl)cc3)CC2)C1=O [Ex. 1-428]	100

Structure (SMILES)	inhibition at 1 µM [%]
O=C(O)CNC(=O)C1=C(O)CCN(Cc2ccc(C(=O)NCCO)cc2)C1=O [Ex. 1-347]	55
O=C(O)CNC(=O)C1=C(O)CCN(Cc2ccc(OCc3cccnc3)cc2)C1=O [Ex. 1-372]	89
O=C(O)CNC(=O)C1=C(O)CCN(Cc2ccc(O)c(Cl)c2)C1=O [Ex. 1-466, N-{[1-(3-Chloro-4-hydroxybenzyl)-4-hydroxy-2-oxo-1,2,5,6-tetrahydro-3-pyridinyl]carbonyl}glycine disodium]	77
O=C(O)CNC(=O)C1=C(O)CCN(Cc2ccc(-c3ccc(C4CC4)cc3)cc2)C1=O [Ex. 2-49]	93
COc1cccc(-c2ccc(CN3CCC(O)=C(C(=O)NCC(=O)O)C3=O)cn2)c1 [Ex. 2-51]	97
O=C(O)CNC(=O)C1=C(O)CCN(Cc2ccc(OCn3nnc4ccccc43)cc2)C1=O [Ex. 1-461]	95
CC1(C)CC(O)=C(C(=O)NCC(=O)O)C(=O)N1Cc1cnc(OCC2CC2)cn1 [Ex. 6-35]	60
CCCCCCCCCN1CCC(O)=C(C(=O)NCC(=O)O)C1=O [Ex. 1-317]	85
O=C(O)CNC(=O)C1=C(O)CCN(Cc2ccc(-c3ccc(C4CC4)cc3)nc2)C1=O [Ex. 2-48]	103
Cc1ccc(COc2ccc(CN3CCC(O)=C(C(=O)NCC(=O)O)C3=O)cc2F)cc1 [Ex. 1-387]	93
O=C(O)CNC(=O)C1=C(O)CCN(Cc2ccc(-c3ccc(C4CC4)cc3)cn2)C1=O [Ex. 2-50]	99
Cc1nc(COc2ccc(CN3CCC(O)=C(C(=O)NCC(=O)O)C3=O)cc2Cl)c(C)o1 [Ex. 1-394]	83
Cc1ccc(Oc2ncc(CN3CCC(O)=C(C(=O)NCC(=O)O)C3=O)cn2)cc1 [Ex. 1-408]	91
Cc1nc(CN2CCC(O)=C(C(=O)NCC(=O)O)C2=O)c[nH]1 [Ex. 1-339]	40
O=C(O)CNC(=O)C1=C(O)C[C@H](c2ccccc2)N(Cc2ccc(OCC3CC3)cc2)C1=O [Ex. 6-10]	76
O=C(O)CNC(=O)C1=C(O)CCN(C[C@H]2C[C@H](Oc3ccc(C(F)(F)F)cc3)C2)C1=O [Ex. 1-459]	96
CN1CC2(CC1=O)CC(O)=C(C(=O)NCC(=O)O)C(=O)N2Cc1ccc(-c2ccccc2)cc1 (centres unmarked) [Ex. 1-315]	81
O=C(O)CNC(=O)C1=C(O)CCN(Cc2cnc(Oc3ccc(Cl)cc3)cn2)C1=O [Ex. 1-440]	98
O=C(O)CNC(=O)C1=C(O)C2(CCCCC2)N(Cc2ccc(-c3ccc(Cl)cc3)cc2)C1=O [Ex. 2-33]	91
CC(C)(C)c1ccc(-c2ccc(CN3C(=O)C(C(=O)NCC(=O)O)=C(O)C34CCCCC4)cc2)cc1 [Ex. 1-330]	69
Cc1ccc(O[C@H]2CC[C@H](CN3CCC(O)=C(C(=O)NCC(=O)O)C3=O)CC2)nc1 [Ex. 1-435]	87
CS(=O)(=O)c1ccc(CN2CC3(CCCCC3)C(O)=C(C(=O)NCC(=O)O)C2=O)cc1 [Ex. 1-331]	75
COc1ncc(-c2ccc(CN3CCC(O)=C(C(=O)NCC(=O)O)C3=O)cc2)s1 [Ex. 2-42]	96
CC1CC(O)=C(C(=O)NCC(=O)O)C(=O)N1Cc1ccc(OCC2CC2)cc1 (centres unmarked) [Ex. 6-12]	67
